Numbers after ± are expanded uncertainties.
Assay: xn = mol fraction of the nth substance listed
Settings: 101 kPa, Liquid; for viscosity: Capillary tube (Ostwald / Ubbelohde) method; for speed of sound: Pulse-echo method; for mass density: Pycnometric method

Cc1ccccc1O [2-methylphenol] + COc1ccc(C=O)cc1
x2 = 0
Settings	mass density [kg/m3]	speed of sound [m/s]	viscosity [mPa·s]
303.15 K	1036.2 ± 10	1485.3 ± 1.6	7.479 ± 0.053
308.15 K	1031 ± 10	1466.8 ± 1.6	5.963 ± 0.043
313.15 K	1026 ± 10	1452.1 ± 1.6	4.238 ± 0.032
318.15 K	1021.1 ± 10	1437.1 ± 1.6	2.215 ± 0.019

Cc1cccc(O)c1 [3-methylphenol] + COc1ccc(C=O)cc1
x2 = 0
Settings	mass density [kg/m3]	speed of sound [m/s]	viscosity [mPa·s]
303.15 K	1025.8 ± 10	1464.2 ± 1.6	8.929 ± 0.062
308.15 K	1021.5 ± 10	1449.3 ± 1.6	7.412 ± 0.052
313.15 K	1017 ± 10	1436.3 ± 1.6	6.116 ± 0.044
318.15 K	1013.5 ± 10	1424.2 ± 1.6	5.019 ± 0.037

COc1ccc(C=O)cc1 [4-methoxybenzaldehyde] + Cc1ccc(O)cc1
Settings	mass density [kg/m3]	speed of sound [m/s]	viscosity [mPa·s]
303.15 K, x1 = 0.0882	1032.1 ± 10	1492 ± 2.3	9.142 ± 0.098
303.15 K, x1 = 0.1788	1038.5 ± 10	1511.2 ± 2.2	8.618 ± 0.089
303.15 K, x1 = 0.2717	1044.6 ± 10	1532.1 ± 2.1	8.086 ± 0.08
303.15 K, x1 = 0.3673	1053 ± 11	1553.5 ± 2	7.524 ± 0.072
303.15 K, x1 = 0.4654	1061.2 ± 11	1575.9 ± 2	7.064 ± 0.065
303.15 K, x1 = 0.5663	1068.4 ± 11	1599.1 ± 1.9	6.543 ± 0.058
303.15 K, x1 = 0.6701	1076.7 ± 11	1622.7 ± 1.8	5.753 ± 0.049
303.15 K, x1 = 0.7769	1089.3 ± 11	1646.6 ± 1.7	5.04 ± 0.041
303.15 K, x1 = 0.8868	1105.6 ± 11	1671.3 ± 1.7	4.265 ± 0.033
303.15 K, x1 = 1	1125.2 ± 11	1694.3 ± 1.6	3.251 ± 0.024
308.15 K, x1 = 0.0882	1027.7 ± 10	1477 ± 2.3	7.824 ± 0.084
308.15 K, x1 = 0.1788	1033 ± 10	1496.4 ± 2.2	7.419 ± 0.077
308.15 K, x1 = 0.2717	1038.6 ± 10	1516.2 ± 2.1	7.002 ± 0.07
308.15 K, x1 = 0.3673	1045.9 ± 10	1536.6 ± 2	6.568 ± 0.063
308.15 K, x1 = 0.4654	1053 ± 11	1558 ± 2	6.218 ± 0.058
308.15 K, x1 = 0.5663	1060.5 ± 11	1580.1 ± 1.9	5.826 ± 0.052
308.15 K, x1 = 0.6701	1066.8 ± 11	1602.5 ± 1.8	5.158 ± 0.044
308.15 K, x1 = 0.7769	1077.5 ± 11	1625.2 ± 1.7	4.604 ± 0.038
308.15 K, x1 = 0.8868	1093 ± 11	1648.6 ± 1.7	3.965 ± 0.031
308.15 K, x1 = 1	1111.6 ± 11	1670.7 ± 1.6	3.131 ± 0.023
313.15 K, x1 = 0.0882	1024.2 ± 10	1462.2 ± 2.3	6.529 ± 0.071
313.15 K, x1 = 0.1788	1029.7 ± 10	1479.1 ± 2.2	6.242 ± 0.065
313.15 K, x1 = 0.2717	1035.9 ± 10	1496.4 ± 2.1	5.913 ± 0.06
313.15 K, x1 = 0.3673	1044 ± 10	1514.2 ± 2	5.582 ± 0.054
313.15 K, x1 = 0.4654	1050.3 ± 10	1533 ± 2	5.339 ± 0.05
313.15 K, x1 = 0.5663	1057.6 ± 11	1552.4 ± 1.9	5.07 ± 0.046
313.15 K, x1 = 0.6701	1065.6 ± 11	1572 ± 1.8	4.541 ± 0.039
313.15 K, x1 = 0.7769	1076.5 ± 11	1591.7 ± 1.7	4.099 ± 0.034
313.15 K, x1 = 0.8868	1091.7 ± 11	1612 ± 1.7	3.609 ± 0.028
313.15 K, x1 = 1	1109.5 ± 11	1631.3 ± 1.6	2.961 ± 0.022
318.15 K, x1 = 0.0882	1020 ± 10	1445.1 ± 2.3	5.316 ± 0.058
318.15 K, x1 = 0.1788	1027.2 ± 10	1456.5 ± 2.2	5.115 ± 0.054
318.15 K, x1 = 0.2717	1033.9 ± 10	1467.9 ± 2.1	4.87 ± 0.05
318.15 K, x1 = 0.3673	1042.1 ± 10	1479.6 ± 2	4.616 ± 0.045
318.15 K, x1 = 0.4654	1048.9 ± 10	1492.3 ± 2	4.431 ± 0.042
318.15 K, x1 = 0.5663	1055.4 ± 11	1505.4 ± 1.9	4.259 ± 0.039
318.15 K, x1 = 0.6701	1063 ± 11	1518.5 ± 1.8	3.861 ± 0.034
318.15 K, x1 = 0.7769	1073.7 ± 11	1531.2 ± 1.7	3.523 ± 0.029
318.15 K, x1 = 0.8868	1088.9 ± 11	1544.7 ± 1.7	3.163 ± 0.025
318.15 K, x1 = 1	1104.7 ± 11	1557 ± 1.6	2.682 ± 0.02

Source: the NIST ThermoML archive (doi:10.1016/j.jct.2011.05.018)
